Data as given in patent US20230117034A1, “PYRAZOLOTRIAZINES” (Bayer Aktiengesellschaft, priority 2019, published 2023).

Tests used:
CDK2/CycE = target: T1, CDK2/CycE (Homo sapiens, UniProt P24941); experiment: CDK2/CycE kinase assay (TR-FRET, 2 mM ATP); format: biochemical; conditions: 2 mM ATP (high ATP); median; read-out: CDK2/CyclinE, 2 mM ATP (high ATP), IC50 (median)
T1 construct: purchased ProQinase GmbH (Freiburg, Germany); host or cells: insect cells (Sf9)
Method in brief: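 GST-tagged human CDK2 and CycE from Sf9 cells, about 10 ng/ml, pre-incubated 15 min at 22 °C with compound in Tris/HCl pH 8.0 buffer. Reaction with 2 mM ATP and 0.75 µM biotinylated peptide for 25 min at 22 °C. Phospho-RB antibody TR-FRET (665/620 nm ratio) read after 1 h; data normalised to no-inhibitor and no-enzyme controls.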

CDK9/CycT1 = target: T2, CDK9/CycT1 (Homo sapiens, UniProt P50750); experiment: CDK9/CycT1 high ATP kinase assay (TR-FRET, 2 mM ATP); format: biochemical; conditions: 2 mM ATP (high ATP); median; read-out: CDK9/CyclinT1, 2 mM ATP (high ATP), IC50 (median)
T2 construct: Recombinant full-length His-tagged human CDK9 and CycT1; purchased Life Technologies PV4131; host or cells: insect cells
T2 sequence (P50750 whole entry): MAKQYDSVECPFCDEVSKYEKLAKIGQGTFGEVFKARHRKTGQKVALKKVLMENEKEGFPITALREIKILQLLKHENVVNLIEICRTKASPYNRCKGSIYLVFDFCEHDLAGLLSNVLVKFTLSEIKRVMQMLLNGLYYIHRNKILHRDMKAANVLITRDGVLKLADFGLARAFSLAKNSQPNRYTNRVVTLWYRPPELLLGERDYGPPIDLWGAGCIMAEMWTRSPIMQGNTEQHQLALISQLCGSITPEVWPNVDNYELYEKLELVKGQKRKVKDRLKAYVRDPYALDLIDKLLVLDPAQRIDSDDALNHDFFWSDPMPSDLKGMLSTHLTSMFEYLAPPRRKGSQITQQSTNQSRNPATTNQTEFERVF
T2 sequence (O60563 whole entry partner): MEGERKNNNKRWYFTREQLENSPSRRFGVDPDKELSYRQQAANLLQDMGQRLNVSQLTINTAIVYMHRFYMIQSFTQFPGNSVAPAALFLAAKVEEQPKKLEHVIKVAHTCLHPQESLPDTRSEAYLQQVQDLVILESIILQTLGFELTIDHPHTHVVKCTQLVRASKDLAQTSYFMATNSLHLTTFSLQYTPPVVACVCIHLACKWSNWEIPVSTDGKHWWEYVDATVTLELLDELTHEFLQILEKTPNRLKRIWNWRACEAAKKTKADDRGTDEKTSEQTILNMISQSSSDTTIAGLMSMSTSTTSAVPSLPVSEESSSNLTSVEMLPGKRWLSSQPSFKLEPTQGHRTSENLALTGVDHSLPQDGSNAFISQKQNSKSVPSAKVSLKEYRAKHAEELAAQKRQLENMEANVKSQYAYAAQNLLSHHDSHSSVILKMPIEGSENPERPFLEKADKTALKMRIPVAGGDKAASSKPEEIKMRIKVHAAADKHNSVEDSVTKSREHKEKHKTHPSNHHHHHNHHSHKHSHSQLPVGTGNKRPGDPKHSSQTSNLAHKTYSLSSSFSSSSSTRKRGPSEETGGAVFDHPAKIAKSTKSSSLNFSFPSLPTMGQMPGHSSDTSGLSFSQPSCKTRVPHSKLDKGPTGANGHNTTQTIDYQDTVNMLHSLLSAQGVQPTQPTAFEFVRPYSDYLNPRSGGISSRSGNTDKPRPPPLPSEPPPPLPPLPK
Method in brief: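 Full-length His-tagged human CDK9/CycT1 (insect cell, ~0.5 μg/mL) preincubated 15 min at 22 °C with compound in Tris pH 8.0, MgCl2, DTT buffer before reaction with biotinylated peptide substrate at high ATP (2 mM).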

[1] = target: T3, CDK12 (nuclear staining in CAL-120 cells) (Homo sapiens, UniProt Q9NYV4); experiment: CDK12 nuclear protein level: immunofluorescence/high content analysis (CAL-120); format: cell-based
T3 construct: endogenous in cells; host or cells: CAL-120 human breast cancer cells (DSMZ ACC 459)
T3 sequence (Q9NYV4 whole entry): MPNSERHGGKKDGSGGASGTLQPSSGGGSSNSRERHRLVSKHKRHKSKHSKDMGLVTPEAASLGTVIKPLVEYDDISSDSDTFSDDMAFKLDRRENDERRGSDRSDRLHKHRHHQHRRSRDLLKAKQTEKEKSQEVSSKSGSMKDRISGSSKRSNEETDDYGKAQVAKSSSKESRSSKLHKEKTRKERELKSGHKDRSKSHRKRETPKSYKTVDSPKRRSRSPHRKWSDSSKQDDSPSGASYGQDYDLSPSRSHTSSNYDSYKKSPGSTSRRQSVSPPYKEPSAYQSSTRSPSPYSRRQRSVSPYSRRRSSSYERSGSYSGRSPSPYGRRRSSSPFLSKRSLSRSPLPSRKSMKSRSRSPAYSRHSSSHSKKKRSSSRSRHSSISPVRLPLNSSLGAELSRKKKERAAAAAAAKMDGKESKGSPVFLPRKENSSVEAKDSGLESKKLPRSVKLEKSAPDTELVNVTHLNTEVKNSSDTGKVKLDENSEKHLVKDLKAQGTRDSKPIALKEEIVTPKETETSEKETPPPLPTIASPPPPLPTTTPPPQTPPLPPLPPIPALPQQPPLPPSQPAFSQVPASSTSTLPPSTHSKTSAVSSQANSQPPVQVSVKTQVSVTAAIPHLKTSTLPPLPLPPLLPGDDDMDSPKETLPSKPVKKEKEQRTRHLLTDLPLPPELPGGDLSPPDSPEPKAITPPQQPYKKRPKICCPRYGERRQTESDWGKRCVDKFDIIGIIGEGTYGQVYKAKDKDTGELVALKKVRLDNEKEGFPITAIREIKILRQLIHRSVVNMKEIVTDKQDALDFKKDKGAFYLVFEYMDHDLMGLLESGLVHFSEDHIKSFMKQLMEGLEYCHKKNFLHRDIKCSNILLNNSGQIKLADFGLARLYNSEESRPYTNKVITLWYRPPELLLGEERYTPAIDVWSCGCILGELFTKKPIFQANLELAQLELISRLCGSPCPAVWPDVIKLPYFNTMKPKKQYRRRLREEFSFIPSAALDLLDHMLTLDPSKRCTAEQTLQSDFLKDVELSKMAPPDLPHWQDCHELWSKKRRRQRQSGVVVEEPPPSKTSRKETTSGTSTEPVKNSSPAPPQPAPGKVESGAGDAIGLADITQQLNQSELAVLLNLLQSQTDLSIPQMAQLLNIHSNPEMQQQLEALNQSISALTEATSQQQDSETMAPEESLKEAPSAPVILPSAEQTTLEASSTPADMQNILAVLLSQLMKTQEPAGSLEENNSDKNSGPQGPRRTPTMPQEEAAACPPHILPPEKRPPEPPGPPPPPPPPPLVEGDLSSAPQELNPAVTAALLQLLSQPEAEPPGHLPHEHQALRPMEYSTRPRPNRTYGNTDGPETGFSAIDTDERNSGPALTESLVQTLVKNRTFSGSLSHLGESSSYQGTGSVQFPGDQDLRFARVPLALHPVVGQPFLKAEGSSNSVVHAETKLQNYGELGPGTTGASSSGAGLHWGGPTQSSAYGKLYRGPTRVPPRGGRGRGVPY
T3 sequence (O75909 whole entry partner): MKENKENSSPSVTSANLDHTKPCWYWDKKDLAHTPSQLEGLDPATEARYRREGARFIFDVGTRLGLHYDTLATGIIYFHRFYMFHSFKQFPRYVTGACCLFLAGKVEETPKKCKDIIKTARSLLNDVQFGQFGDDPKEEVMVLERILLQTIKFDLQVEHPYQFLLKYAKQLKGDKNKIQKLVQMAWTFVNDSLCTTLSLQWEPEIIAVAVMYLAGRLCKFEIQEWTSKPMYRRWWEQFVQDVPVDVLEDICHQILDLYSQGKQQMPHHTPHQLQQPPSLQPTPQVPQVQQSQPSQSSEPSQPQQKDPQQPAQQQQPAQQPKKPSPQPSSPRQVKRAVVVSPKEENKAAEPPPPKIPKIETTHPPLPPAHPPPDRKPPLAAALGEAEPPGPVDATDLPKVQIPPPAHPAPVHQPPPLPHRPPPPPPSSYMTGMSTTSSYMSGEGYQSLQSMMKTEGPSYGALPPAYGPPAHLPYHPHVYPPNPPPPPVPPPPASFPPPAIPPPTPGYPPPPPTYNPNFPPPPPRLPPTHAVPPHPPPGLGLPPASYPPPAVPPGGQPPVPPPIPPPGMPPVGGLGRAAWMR
Method in brief: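 CAL-120 cells were treated with compound for 24 h at 37 °C, fixed with PFA and immunostained for CDK12. Nuclear CDK12 intensity was quantified by automated image analysis and normalized to DMSO and control. DC50 is the concentration giving 50% reduction of nuclear staining.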

## CN1C2CCC1CN(c1nc(NCc3nc4c(F)cccc4[nH]3)n3ncc(C(F)(F)F)c3n1)C2 [Example 384, N-[(4-fluoro-1H-benzimidazol-2-yl)methyl]-2-(8-methyl-3,8-diazabicyclo[3.2.1]octan-3-yl)-8-(trifluoromethyl)pyrazolo[1,5-a][1,3,5]triazin-4-amine]
CDK2/CycE
  IC50: > 20 µM
CDK9/CycT1
  IC50: > 20 µM
[1]; CAL-120 cells, 24 h, immunofluorescence, 50% reduction of nuclear CDK12 staining intensity, median, read-out: CDK12 degradation IF, DC50- [mol/l] (median)
  DC50: 11 nM
[1]; ratio of IC50 CDK12 high ATP kinase assay to DC50 CDK12 degradation (IF, CAL-120)
  (IC50 CDK12 high ATP) to (Degradation DC50 CDK12) ratio: 735
